Data set [1] addresses T1, A-form of the human progesterone receptor (Homo sapiens, UniProt P06401).
T1 sequence (P06401 1-769 isoform P06401-2): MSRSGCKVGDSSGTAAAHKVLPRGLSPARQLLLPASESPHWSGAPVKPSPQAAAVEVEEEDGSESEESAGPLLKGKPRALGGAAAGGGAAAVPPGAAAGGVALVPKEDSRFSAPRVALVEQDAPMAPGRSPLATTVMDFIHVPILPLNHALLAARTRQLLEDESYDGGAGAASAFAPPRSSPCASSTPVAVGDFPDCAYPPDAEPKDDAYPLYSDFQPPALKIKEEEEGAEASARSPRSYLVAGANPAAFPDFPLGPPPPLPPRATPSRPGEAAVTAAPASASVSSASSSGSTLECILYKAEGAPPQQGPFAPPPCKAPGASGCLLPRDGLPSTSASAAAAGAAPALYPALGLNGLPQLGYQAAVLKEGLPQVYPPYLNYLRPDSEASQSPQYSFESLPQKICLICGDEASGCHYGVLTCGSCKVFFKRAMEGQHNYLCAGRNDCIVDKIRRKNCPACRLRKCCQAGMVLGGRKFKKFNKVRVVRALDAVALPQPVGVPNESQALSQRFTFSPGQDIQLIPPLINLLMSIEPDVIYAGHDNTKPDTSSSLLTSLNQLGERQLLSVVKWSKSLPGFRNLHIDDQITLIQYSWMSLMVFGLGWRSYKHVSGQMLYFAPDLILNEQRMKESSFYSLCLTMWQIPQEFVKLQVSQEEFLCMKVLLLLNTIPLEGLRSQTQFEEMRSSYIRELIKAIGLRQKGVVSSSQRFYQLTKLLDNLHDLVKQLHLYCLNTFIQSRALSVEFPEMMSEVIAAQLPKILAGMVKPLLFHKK
The experiment in a line: hPR binding assay (competitive radioligand binding).

Data set [2] deals with rat uterine decidualization. The data set can be described thus: Rat decidualization assay. As to conditions: for inhibition in vivo at 10 mg/kg / inhibition in vivo at 3 mg/kg: read-out: Decid. IC50 mg/kg; for EC50: s.c., half-maximal increase in decidual response (uterine wet weight), ovariectomized rats, individual studies. The class given is in vivo. The protocol: 1. Rat Decidualization Assay
The animals are treated once daily for seven days.
Uteri are removed and trimmed of fat.
Decidual response: [(D-C)/C]×100%

A further data set deals with T47D cells. The experiment in a line: T47D cell proliferation assay (BrdU incorporation). It is filed as cell-based. To be noted: half-maximal increase in BrdU incorporation, individual studies. The protocol: 3. T47D Cell Proliferation Assay
The objective of this assay is the determination of progestational and antiprogestational potency by using a cell proliferation assay in T47D cells. A compound's effect on DNA synthesis in T47D cells is measured.
DMEM:F12 (1:1) (GIBCO, BRL) supplemented with 10% (v/v) fetal bovine serum (not heat-inactivated), 100 U/ml penicillin, […], and 2 mM GlutaMax (GIBCO, BRL).
Minimum Essential Medium (MEM) (#51200-038GIBCO, BRL) phenol red-free supplemented with 0.5% charcoal stripped fetal bovine serum, 100 U/ml penicillin, 200 mg/ml streptomycin, and 2 mM GlutaMax (GIBCO, BRL).
Stock T47 D cells are maintained in growth medium For BrdU incorporation assay, cells are plated in 96-well plates (Falcon, Becton Dickinson Labware) at 10,000 cells/well in growth medium. […]
At the end of BrdU labeling, the medium is removed and BrdU incorporation is measured using a cell proliferation ELISA kit (#RPN 250, Amersham Life Science) according to manufacturer's instructions. […] Then 25 μl of 1 M sulfuric acid is added to each well to stop color reaction and optical density is read in a plate reader at 450 nm within 5 min.
Square root-transformed data are used for analysis of variance and nonlinear dose response curve fitting for both agonist and antagonist modes. […] EC50 or IC50 values are calculated from the retransformed values. […]
On the technique in general: Dividing cells build labelled thymidine or BrdU into new DNA.

Where [3] appears, read: rat decidualization, antiprogestational mode.
Setting [4] is: @ 3 mg/kg, rat decidualization, antiprogestational mode.

Several values for one entry are separate records, joined by “and”; a condition that tells them apart may be missing. Equal entries are not always repeated.

For orientation: melting point means the temperature, or range, at which the solid turns liquid. By Ki is commonly meant a dissociation constant, usually derived from enzyme kinetics or from competition with a known ligand. High values mean a looser hold on the target, low ones a stronger hold on the target. Regarding `Cc1cc(C#N)sc1-c1ccc2c(c1)C1(CCCCC1)C(=O)N2` [Example 36, 4-Methyl-5-(2′-oxo-2′,3′-dihydrospiro[cyclohexane-1,3′-[3H]indol]-5′-yl)-2-thiophene carbonitrile], the melting point fell in the range of 200 to 203 °C. The compound further had a Ki in data set [1] of 4.8 nM. In addition, the inhibition in vivo at 10 mg/kg in data set [2] (setting [3]) is 50%. For the compound `C#C[C@]1(O)CC[C@H]2[C@@H]3CCC4=CC(=O)CC[C@@H]4[C@H]3CC[C@@]21CC` [Levonorgestrel], in data set [2], the EC50 is 0.08 mg/kg and 0.12 mg/kg and 0.09 mg/kg (2×). As for `N#Cc1cc(-c2ccc3c(c2)C2(CCCCC2)C(=O)N3)cs1` [Example 34, 4-(1,2-Dihydro-2-oxospiro[cyclohexane-1,3-[3H]indol]-5-yl)-2-thiophenecarbonitrile], the Ki in data set [1] is 19 nM. Also, in data set [2] (setting [3]), the inhibition in vivo at 10 mg/kg was 50%. For the compound `N#Cc1cc(F)cc(-c2ccc3c(c2)C2(CCCC2)C(=O)N3)c1` [Example 80, 5′-(3-Cyano-5-fluorophenyl)-spiro[cyclopentane-1,3′-[3H]indol]-2′(1′H)-one], the inhibition in vivo at 3 mg/kg in data set [2] (setting [4]) is 70%. The compound `CC(=O)O[C@]1(C(C)=O)CC[C@H]2[C@@H]3C[C@H](C)C4=CC(=O)CC[C@]4(C)[C@H]3CC[C@@]21C` [MPA, medroxyprogesterone acetate] displayed an EC50 in the data set with T47D cells (Homo sapiens, T47D) of 0.019 nM. As to `N#Cc1cccc(-c2ccc3c(c2)C2(CCCCC2)C(=O)N3)c1` [Example 47], the melting point was in the range of 190 to 191 °C. Further, in data set [2] (setting [3]), the inhibition in vivo at 10 mg/kg was 50%. `N#Cc1ccc(-c2ccc3c(c2)C2(CCCCC2)C(=O)N3)s1` [Example 35]: the melting point was in the range of 225 to 228 °C. This compound had a Ki in data set [1] of 22 nM. For the same compound, the inhibition in vivo at 10 mg/kg in data set [2] (setting [3]) came to 50%.

Regarding `C#C[C@]1(O)CC[C@H]2[C@@H]3CCC4=CC(=O)CC[C@@H]4[C@H]3C(=C)C[C@@]21CC` [3-Ketodesogestrel], the EC50 in data set [2] was 0.10 mg/kg and 0.06 mg/kg and 0.11 mg/kg. `N#Cc1cccc(-c2ccc3c(c2)C2(CCCC2)C(=O)N3)c1` [Example 77, 5′-(3-Cyanophenyl)-spiro[cyclopentane-1,3′-[3H]indol]-2′(1′H)-one] returned a melting point of 217 to 219 °C. In data set [2] (setting [4]), the inhibition in vivo at 3 mg/kg was found to be 60%.

With `O=C1Nc2ccc(-c3ccc([N+](=O)[O-])[nH]3)cc2C12CCCCC2` [Example 44, 5′-(5-Nitro-1H-pyrrol-2-yl)spiro[cyclohexane-1,3′-[3H]indol]-2′(1′H)-one], the melting point was 278 °C (dec.). Further, the Ki in data set [1] was determined as 123 nM. Moreover, the inhibition in vivo at 3 mg/kg in data set [2] (setting [4]) was 50%. In turn, `O=C1Nc2ccc(-c3cc(F)cc([N+](=O)[O-])c3)cc2C12CCCCC2` [Example 32, 5-(3-Fluoro-5-nitrophenyl)spiro[cyclohexane-1,3-[3H]indol]-2(1H)-one] had a melting point of 191 to 193 °C. In data set [1], this compound displayed a Ki of 9 nM. Besides, in data set [2] (setting [3]), the inhibition in vivo at 10 mg/kg came to 60%. `O=C1Nc2ccc(-c3cc(F)cc(F)c3)cc2C12CCCCC2` [Example 22, 5′-(3,5-Difluorophenyl)spiro[cyclohexane1,3′-[3H]indol]-2′(1′H)-one] gave a melting point of 180 to 183 °C. Still for that read-out and setting: the value for `CC1(C)C(=O)Nc2ccc(-c3ccc([N+](=O)[O-])s3)cc21` [Example 83, 3,3-Dimethyl-5-(5-nitro-thiophene-2-yl)-1,3-dihydro-indol-2-one] was 223 to 225 °C; that for `O=C1Nc2ccc(-c3cccc([N+](=O)[O-])c3)cc2C12CCCCC2` [Example 30, 5′-(3-Nitrophenyl)spiro[cyclohexane-1,3′-[3H]indol]-2′(1′H)-one] was 196 to 198 °C. Still for that read-out and setting: to `CC1(C)C(=O)Nc2ccc(-c3cccc(C#N)c3)cc21` [Example 67, 3-(3,3-Dimethyl-2-oxo-2,3-dihydro-1H-indol-5-yl)-benzonitrile] belongs 200.2 to 202 °C.

Consider `Cc1cc(C#N)sc1-c1ccc2c(c1)C1(CCCC1)C(=O)N2` [Example 73], for which, in data set [2] (setting [4]), the “Decid. IC50 mg/kg” value amounted to 50% @ 3. Take `N#Cc1cc(F)cc(-c2cc(N)c3c(c2)C2(CCCCC2)C(=O)N3)c1` [Example 53, 3-(7′-Amino-1′,2′-dihydro-2′-oxospiro[cyclohexane-1,3′-[3H]indol]-5′-yl)-5-fluoro-benzonitrile]: the melting point lay within 241 to 243 °C. Take `C[C@H](O)C(=O)[C@@]1(C)CC[C@H]2[C@@H]3CCC4=CC(=O)CCC4=C3CC[C@@]21C` [Trimegestone]: the EC50 in the data set with T47D cells was 0.017 nM and 0.014 nM and 0.019 nM. Regarding `CC#C[C@]1(O)CC[C@H]2[C@@H]3CCC4=CC(=O)CCC4=C3[C@@H](c3ccc(N(C)C)cc3)C[C@@]21C` [RU486], the IC50 in data set [2] (p.o., half-maximal decrease in EC50 progesterone induced decidual response, rats) was 0.21 mg/kg and 0.14 mg/kg.

Source of the values: patent US6391907B1, “Indoline derivatives” (American Home Products Corporation, priority 1999, dated 2002).
